The results in this text go back to ChEMBL document CHEMBL1201862, “PubChem BioAssay data set” (2004).

As a reminder, the GI50 is the concentration that inhibits growth by half.

Among the test systems are NCI-H460; U-251; SNB-19; SR; Hs-578T; MDA-MB-435; SF-268; MCF7; SW-620; K562; SK-OV-3; UACC-257; SK-MEL-28; UO-31; EKVX; SF-539; SK-MEL-2; HOP-62; CAKI-1; OVCAR-5.
What all share (assay): DTP human tumour cell line panel, 48 h

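Following 48 hours of exposure in 96-well plates, responses at five concentrations were used to interpolate endpoints linearly. GI50 = concentration required for 50% inhibition of growth.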 Calls of active or inactive are those of the source. Cut-off read from the data, not from the text of the source: active = GI50 up to about 1.1 µM and inactive = higher.

In the case of `Cc1ccc(S(=O)(=O)NCCSS(=O)(=O)c2ccc(C)cc2)cc1`, the GI50 in the experiment on NCI-H460 was 35.4 µM (inactive); in the experiment on U-251, 25.5 µM (inactive); in the experiment on SNB-19, 72.9 µM (inactive); in the experiment on SR, 13.9 µM (inactive); in the experiment with Hs-578T, 96.4 µM (inactive); with MDA-MB-435 it was 22.3 µM (inactive). The GI50 is 22.1 µM (inactive) in the experiment on SF-268; 22.3 µM (inactive) with MCF7; 19.5 µM (inactive) with SW-620; 30.7 µM (inactive) in the experiment with K562; > 100 µM (inactive) in the experiment on SK-OV-3; 64.1 µM (inactive) with UACC-257. Also, the GI50 in the experiment with SK-MEL-28 was 31.7 µM (inactive); in the experiment on UO-31, 28 µM (inactive).
With `COC1(OC)c2no[n+]([O-])c2CCC1O` (stereo not drawn), the GI50 in the experiment on NCI-H460, in the experiment with EKVX, in the experiment with SNB-19, in the experiment on SF-539, in the experiment on SK-MEL-2 and with SR was > 100 µM (inactive) in each case. In addition, the GI50 with HOP-62, with Hs-578T, in the experiment with MDA-MB-435, in the experiment on SF-268, with MCF7 and with SW-620 was > 100 µM (inactive) each time. Also, the GI50 in the experiment with K562, in the experiment with SK-OV-3, in the experiment on UACC-257, in the experiment with CAKI-1, with SK-MEL-28 and in the experiment with OVCAR-5 was > 100 µM (inactive) each time. Besides, the GI50 with UO-31 was > 100 µM (inactive).
Consider `COc1ccc2c(O)c3[n+](cc2c1OC)CCc1cc2c(cc1-3)OCO2`, for which the GI50 was 79.4 µM (inactive) in the experiment with NCI-H460; > 100 µM (inactive) with U-251; > 100 µM (inactive) with EKVX; > 100 µM (inactive) with SNB-19; > 100 µM (inactive) in the experiment with SF-539; > 100 µM (inactive) with SK-MEL-2. The GI50 is 39.3 µM (inactive) in the experiment on SR; > 100 µM (inactive) in the experiment with HOP-62; > 100 µM (inactive) in the experiment with Hs-578T; 24.8 µM (inactive) with MDA-MB-435; > 100 µM (inactive) in the experiment with SF-268; 56.2 µM (inactive) in the experiment on MCF7. The GI50 in the experiment with SW-620 is 45.5 µM (inactive); with K562, 38.5 µM (inactive); in the experiment on SK-OV-3, > 100 µM (inactive); in the experiment with UACC-257 it was > 100 µM (inactive); with CAKI-1 it was > 100 µM (inactive); in the experiment on OVCAR-5, > 100 µM (inactive).
In the case of `CSC1SCC2C(=O)N(C)C(C(C)C)C(=O)OCC(NC(=O)c3cnc4ccccc4n3)C(=O)NC(C)C(=O)N(C)C1C(=O)N(C)C(C(C)C)C(=O)OCC(NC(=O)c1cnc3ccccc3n1)C(=O)NC(C)C(=O)N2C` (stereo not drawn), the GI50 is 0.0075 µM (active) in the experiment on NCI-H460; 0.0075 µM (active) in the experiment on U-251; 0.0075 µM (active) with EKVX; 0.0075 µM (active) with SNB-19; 0.0178 µM (active) with SK-MEL-2; 0.000171 µM (active) in the experiment with SR. Also, the GI50 in the experiment on HOP-62 was 0.0075 µM (active); with Hs-578T it was 0.000374 µM (active); in the experiment on MDA-MB-435 it was 0.00105 µM (active); in the experiment with SF-268 it was 0.0075 µM (active); in the experiment on MCF7 it was 0.0075 µM (active); with SW-620 it was 0.0075 µM (active). The GI50 in the experiment on SK-OV-3 is < 0.0147 µM (active); in the experiment with CAKI-1, 0.0075 µM (active); in the experiment with OVCAR-5, 0.0075 µM (active); in the experiment on UO-31 it was 0.0083 µM (active).
For the compound `O=C1CCCC/C1=C1/SC(=N/c2ccccc2)/C(=N\c2ccccc2)N1c1ccccc1`, the GI50 is > 100 µM (inactive) with NCI-H460; > 100 µM (inactive) in the experiment on U-251; > 100 µM (inactive) with SNB-19; > 100 µM (inactive) in the experiment on SK-MEL-2; > 100 µM (inactive) in the experiment with SR; 36.1 µM (inactive) with HOP-62. Also, the GI50 is 78.3 µM (inactive) with Hs-578T; > 10 µM (inactive) in the experiment with MDA-MB-435; 68.7 µM (inactive) in the experiment with MCF7; > 100 µM (inactive) in the experiment on K562; > 100 µM (inactive) with SK-OV-3; > 100 µM (inactive) with CAKI-1. In addition, the values for the GI50 in the experiment with SK-MEL-28, in the experiment with OVCAR-5 and in the experiment on UO-31 were > 100 µM (inactive), > 100 µM (inactive) and 91.4 µM (inactive), respectively.
Consider `C=CCOC1OC(CS(=O)(=O)O)C(O)C(O)C1O` (stereo not drawn), for which the GI50 in the experiment on NCI-H460, in the experiment on U-251, in the experiment with SNB-19, in the experiment on SK-MEL-2, in the experiment on SR and with HOP-62 was > 100 µM (inactive) throughout. Moreover, the GI50 in the experiment on Hs-578T was > 100 µM (inactive); with MDA-MB-435 it was > 100 µM (inactive); with MCF7 it was > 100 µM (inactive); in the experiment with SW-620 it was > 100 µM (inactive); with K562, 27 µM (inactive); with SK-OV-3, > 100 µM (inactive). Moreover, the GI50 with UACC-257, in the experiment with CAKI-1, in the experiment on SK-MEL-28, in the experiment on OVCAR-5 and with UO-31 was > 100 µM (inactive) each time.
`CN(C)C(=O)Oc1c(Br)cc(Br)cc1C(=O)OCc1ccccc1`: the GI50 in the experiment on NCI-H460 is 21.8 µM (inactive); in the experiment with U-251, 21.6 µM (inactive); in the experiment with EKVX, 35.6 µM (inactive); with SNB-19, 45.5 µM (inactive); in the experiment on SF-539, 26.6 µM (inactive); in the experiment with SK-MEL-2 it was 27.7 µM (inactive). In addition, the GI50 in the experiment with HOP-62 is 28.2 µM (inactive); with SF-268, 35.6 µM (inactive); in the experiment with MCF7, 26.4 µM (inactive); in the experiment on SW-620 it was 41.1 µM (inactive); with K562, 28.2 µM (inactive); in the experiment with SK-OV-3, 44.9 µM (inactive). Moreover, the GI50 with UACC-257 was 26.5 µM (inactive); in the experiment with CAKI-1, 23.3 µM (inactive); in the experiment with SK-MEL-28 it was 40.2 µM (inactive); in the experiment with OVCAR-5, 28.3 µM (inactive); with UO-31, 20.3 µM (inactive).
With `O=c1c(-c2ccccc2)c(SCCN2CCOCC2)n(-c2ccccc2)c(=S)n1-c1ccccc1`, the GI50 with NCI-H460, in the experiment on U-251, with EKVX, in the experiment with SF-539, with SK-MEL-2 and in the experiment on SR was > 100 µM (inactive) throughout. Moreover, the GI50 is 74 µM (inactive) with HOP-62; 62.2 µM (inactive) with Hs-578T; > 100 µM (inactive) with MDA-MB-435; 80.9 µM (inactive) in the experiment with MCF7; > 100 µM (inactive) with SW-620; > 100 µM (inactive) with K562. The GI50 with SK-OV-3 was > 100 µM (inactive); with UACC-257 it was > 100 µM (inactive); with CAKI-1 it was 52 µM (inactive); in the experiment on SK-MEL-28, > 100 µM (inactive); in the experiment with OVCAR-5, > 100 µM (inactive).
Turning to `Nc1nc2ccc3ccccc3c2[nH]1`, the GI50 in the experiment on NCI-H460, with U-251, in the experiment on EKVX, in the experiment on SNB-19, in the experiment on SF-539 and with SK-MEL-2 was > 10 µM (inactive) in each case. Moreover, the GI50 with SR, in the experiment on HOP-62, with Hs-578T, in the experiment on MDA-MB-435, in the experiment with SF-268 and in the experiment with MCF7 was > 10 µM (inactive) each time. The GI50 in the experiment on SW-620, with K562, with SK-OV-3, in the experiment on CAKI-1, in the experiment on SK-MEL-28 and in the experiment with OVCAR-5 was > 10 µM (inactive) in each case. In addition, the GI50 in the experiment on UO-31 was 5.66 µM (inactive).
For the compound `CS(C)(=O)=Nn1c(=O)n2n(c1=O)C1c3ccccc3C2c2ccccc21`, the GI50 with NCI-H460, with U-251, in the experiment with EKVX, in the experiment with SNB-19, with SF-539 and in the experiment on SK-MEL-2 was > 100 µM (inactive) throughout. Besides, the GI50 with SR, in the experiment with HOP-62, with MDA-MB-435, in the experiment on MCF7, in the experiment on SW-620 and with K562 was > 100 µM (inactive) in each case. Further, the GI50 in the experiment on SK-OV-3, with UACC-257, in the experiment with CAKI-1, in the experiment on SK-MEL-28, in the experiment with OVCAR-5 and with UO-31 was > 100 µM (inactive) each time.
On to `C1CSCCSCCSCCSC1`, for which the GI50 with NCI-H460, in the experiment with U-251, with EKVX, in the experiment with SNB-19, with SF-539 and in the experiment with SK-MEL-2 was > 100 µM (inactive) each time. For the same compound, the GI50 in the experiment on HOP-62, in the experiment on Hs-578T, with MDA-MB-435, in the experiment on SF-268, in the experiment on MCF7 and in the experiment on SW-620 was > 100 µM (inactive) throughout. Moreover, the GI50 with SK-OV-3, in the experiment on UACC-257, with CAKI-1, with SK-MEL-28, in the experiment with OVCAR-5 and in the experiment on UO-31 was > 100 µM (inactive) in each case.
